How the values were obtained:
Assay in all cases: Kinase selectivity, DiscoverX scanMAX Kinase assay panel (% control)
Type in all cases: binding
[1] = target: T1, kinases of the scanMAX Kinase assay panel (Homo sapiens, UniProt O75385); details: kinase ULK1; 1 uM in DMSO
T1 construct: purchased DiscoverX Co. (contract measurement) scanMAX Kinase assay panel
T1 sequence (O75385 1-1050): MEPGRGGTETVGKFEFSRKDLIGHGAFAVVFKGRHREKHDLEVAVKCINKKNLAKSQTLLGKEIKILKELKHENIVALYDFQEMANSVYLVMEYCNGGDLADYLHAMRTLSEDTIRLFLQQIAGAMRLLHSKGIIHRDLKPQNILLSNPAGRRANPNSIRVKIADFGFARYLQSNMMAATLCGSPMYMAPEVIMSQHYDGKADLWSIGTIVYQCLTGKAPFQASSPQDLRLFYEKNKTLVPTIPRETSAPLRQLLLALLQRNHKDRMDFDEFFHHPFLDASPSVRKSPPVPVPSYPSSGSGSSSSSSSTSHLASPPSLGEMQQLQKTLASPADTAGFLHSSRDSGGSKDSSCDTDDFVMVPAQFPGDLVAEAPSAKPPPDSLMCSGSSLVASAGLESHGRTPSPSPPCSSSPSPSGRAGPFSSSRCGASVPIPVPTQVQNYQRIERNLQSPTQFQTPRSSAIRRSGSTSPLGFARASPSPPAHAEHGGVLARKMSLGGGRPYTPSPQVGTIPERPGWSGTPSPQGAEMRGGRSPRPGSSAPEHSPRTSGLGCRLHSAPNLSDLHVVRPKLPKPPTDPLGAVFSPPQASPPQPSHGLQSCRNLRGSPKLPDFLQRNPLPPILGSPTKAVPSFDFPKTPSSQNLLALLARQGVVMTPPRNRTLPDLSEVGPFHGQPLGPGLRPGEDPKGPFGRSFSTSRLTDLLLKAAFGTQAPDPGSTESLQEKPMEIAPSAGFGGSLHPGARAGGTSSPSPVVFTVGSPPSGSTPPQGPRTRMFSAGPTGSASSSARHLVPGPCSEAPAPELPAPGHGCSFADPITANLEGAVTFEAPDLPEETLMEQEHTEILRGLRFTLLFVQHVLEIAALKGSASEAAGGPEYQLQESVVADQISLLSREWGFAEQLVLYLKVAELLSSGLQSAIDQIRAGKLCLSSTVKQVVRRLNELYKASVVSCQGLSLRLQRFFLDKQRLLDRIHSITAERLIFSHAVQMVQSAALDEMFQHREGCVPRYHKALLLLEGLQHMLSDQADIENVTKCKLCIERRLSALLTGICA
Outline: (§1)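 Binding-panel profiling at one concentration, 1 uM in DMSO; values are % of DMSO control after subtracting the positive-control floor. Less than 35% means activity on that kinase.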

[2] = target: T2, kinases of the scanMAX Kinase assay panel (Homo sapiens, UniProt P00519, Y253F); details: ABL1(Y253F)-phosphorylated; 1 uM
T2 construct: purchased DiscoverX Co. (contract measurement) scanMAX Kinase assay panel
Outline: as §1

[3] = target: T3, kinases of the scanMAX Kinase assay panel (Homo sapiens, UniProt P10721, L576P); details: KIT(L576P); 1 uM
T3 construct: purchased DiscoverX Co. (contract measurement) scanMAX Kinase assay panel
Outline: as §1

[4] = target: T4, kinases of the scanMAX Kinase assay panel (Homo sapiens, UniProt P17948); details: FLT1; 1 uM
T4 construct: purchased DiscoverX Co. (contract measurement) scanMAX Kinase assay panel
Outline: as §1

[5] = target: T5, kinases of the scanMAX Kinase assay panel (Homo sapiens, UniProt P31751); details: AKT2; 1 uM
T5 construct: purchased DiscoverX Co. (contract measurement) scanMAX Kinase assay panel
Outline: as §1

[6] = target: T6, kinases of the scanMAX Kinase assay panel (Homo sapiens, UniProt P49759); details: CLK1; 1 uM
T6 construct: purchased DiscoverX Co. (contract measurement) scanMAX Kinase assay panel
Outline: as §1

[7] = target: T7, kinases of the scanMAX Kinase assay panel (Homo sapiens, UniProt Q8NEV4); details: MYO3A; 1 uM
T7 construct: purchased DiscoverX Co. (contract measurement) scanMAX Kinase assay panel
Outline: as §1

[8] = target: T8, kinases of the scanMAX Kinase assay panel (Homo sapiens, UniProt Q8TDC3); details: BRSK1; 1 uM
T8 construct: purchased DiscoverX Co. (contract measurement) scanMAX Kinase assay panel
T8 sequence (Q8TDC3 1-778): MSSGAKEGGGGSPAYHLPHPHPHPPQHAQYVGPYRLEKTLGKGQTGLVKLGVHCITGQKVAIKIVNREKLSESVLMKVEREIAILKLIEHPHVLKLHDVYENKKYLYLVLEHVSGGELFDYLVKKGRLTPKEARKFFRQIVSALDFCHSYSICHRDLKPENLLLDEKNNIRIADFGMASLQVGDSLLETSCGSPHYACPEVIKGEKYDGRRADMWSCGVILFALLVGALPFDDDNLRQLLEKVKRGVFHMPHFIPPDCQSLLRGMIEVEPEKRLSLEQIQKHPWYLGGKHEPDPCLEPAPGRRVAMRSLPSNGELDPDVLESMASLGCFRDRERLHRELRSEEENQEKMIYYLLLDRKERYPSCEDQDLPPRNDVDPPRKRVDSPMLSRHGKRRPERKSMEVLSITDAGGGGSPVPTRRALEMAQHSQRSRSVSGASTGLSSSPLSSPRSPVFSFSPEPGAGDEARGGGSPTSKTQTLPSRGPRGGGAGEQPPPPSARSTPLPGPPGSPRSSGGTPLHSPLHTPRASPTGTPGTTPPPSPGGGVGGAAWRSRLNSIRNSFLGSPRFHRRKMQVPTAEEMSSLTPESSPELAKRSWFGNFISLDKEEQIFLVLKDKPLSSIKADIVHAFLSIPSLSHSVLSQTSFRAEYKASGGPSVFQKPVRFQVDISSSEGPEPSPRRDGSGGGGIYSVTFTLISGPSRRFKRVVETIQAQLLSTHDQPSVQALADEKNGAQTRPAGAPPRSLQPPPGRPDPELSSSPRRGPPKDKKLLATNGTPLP
Outline: as §1

[9] = target: T9, kinases of the scanMAX Kinase assay panel (Homo sapiens, UniProt Q96GD4); details: AURKB; 1 uM
T9 construct: purchased DiscoverX Co. (contract measurement) scanMAX Kinase assay panel
Outline: as §1

[10] = target: T10, kinases of the scanMAX Kinase assay panel (Homo sapiens, UniProt Q96NX5); details: CAMK1G; 1 uM
T10 construct: purchased DiscoverX Co. (contract measurement) scanMAX Kinase assay panel
Outline: as §1

[11] = target: T11, kinases of the scanMAX Kinase assay panel (Homo sapiens, UniProt Q9H4A3); details: kinase WNK1; 1 uM in DMSO
T11 construct: purchased DiscoverX Co. (contract measurement) scanMAX Kinase assay panel
Outline: as §1

T11 sequence (Q9H4A3 whole entry): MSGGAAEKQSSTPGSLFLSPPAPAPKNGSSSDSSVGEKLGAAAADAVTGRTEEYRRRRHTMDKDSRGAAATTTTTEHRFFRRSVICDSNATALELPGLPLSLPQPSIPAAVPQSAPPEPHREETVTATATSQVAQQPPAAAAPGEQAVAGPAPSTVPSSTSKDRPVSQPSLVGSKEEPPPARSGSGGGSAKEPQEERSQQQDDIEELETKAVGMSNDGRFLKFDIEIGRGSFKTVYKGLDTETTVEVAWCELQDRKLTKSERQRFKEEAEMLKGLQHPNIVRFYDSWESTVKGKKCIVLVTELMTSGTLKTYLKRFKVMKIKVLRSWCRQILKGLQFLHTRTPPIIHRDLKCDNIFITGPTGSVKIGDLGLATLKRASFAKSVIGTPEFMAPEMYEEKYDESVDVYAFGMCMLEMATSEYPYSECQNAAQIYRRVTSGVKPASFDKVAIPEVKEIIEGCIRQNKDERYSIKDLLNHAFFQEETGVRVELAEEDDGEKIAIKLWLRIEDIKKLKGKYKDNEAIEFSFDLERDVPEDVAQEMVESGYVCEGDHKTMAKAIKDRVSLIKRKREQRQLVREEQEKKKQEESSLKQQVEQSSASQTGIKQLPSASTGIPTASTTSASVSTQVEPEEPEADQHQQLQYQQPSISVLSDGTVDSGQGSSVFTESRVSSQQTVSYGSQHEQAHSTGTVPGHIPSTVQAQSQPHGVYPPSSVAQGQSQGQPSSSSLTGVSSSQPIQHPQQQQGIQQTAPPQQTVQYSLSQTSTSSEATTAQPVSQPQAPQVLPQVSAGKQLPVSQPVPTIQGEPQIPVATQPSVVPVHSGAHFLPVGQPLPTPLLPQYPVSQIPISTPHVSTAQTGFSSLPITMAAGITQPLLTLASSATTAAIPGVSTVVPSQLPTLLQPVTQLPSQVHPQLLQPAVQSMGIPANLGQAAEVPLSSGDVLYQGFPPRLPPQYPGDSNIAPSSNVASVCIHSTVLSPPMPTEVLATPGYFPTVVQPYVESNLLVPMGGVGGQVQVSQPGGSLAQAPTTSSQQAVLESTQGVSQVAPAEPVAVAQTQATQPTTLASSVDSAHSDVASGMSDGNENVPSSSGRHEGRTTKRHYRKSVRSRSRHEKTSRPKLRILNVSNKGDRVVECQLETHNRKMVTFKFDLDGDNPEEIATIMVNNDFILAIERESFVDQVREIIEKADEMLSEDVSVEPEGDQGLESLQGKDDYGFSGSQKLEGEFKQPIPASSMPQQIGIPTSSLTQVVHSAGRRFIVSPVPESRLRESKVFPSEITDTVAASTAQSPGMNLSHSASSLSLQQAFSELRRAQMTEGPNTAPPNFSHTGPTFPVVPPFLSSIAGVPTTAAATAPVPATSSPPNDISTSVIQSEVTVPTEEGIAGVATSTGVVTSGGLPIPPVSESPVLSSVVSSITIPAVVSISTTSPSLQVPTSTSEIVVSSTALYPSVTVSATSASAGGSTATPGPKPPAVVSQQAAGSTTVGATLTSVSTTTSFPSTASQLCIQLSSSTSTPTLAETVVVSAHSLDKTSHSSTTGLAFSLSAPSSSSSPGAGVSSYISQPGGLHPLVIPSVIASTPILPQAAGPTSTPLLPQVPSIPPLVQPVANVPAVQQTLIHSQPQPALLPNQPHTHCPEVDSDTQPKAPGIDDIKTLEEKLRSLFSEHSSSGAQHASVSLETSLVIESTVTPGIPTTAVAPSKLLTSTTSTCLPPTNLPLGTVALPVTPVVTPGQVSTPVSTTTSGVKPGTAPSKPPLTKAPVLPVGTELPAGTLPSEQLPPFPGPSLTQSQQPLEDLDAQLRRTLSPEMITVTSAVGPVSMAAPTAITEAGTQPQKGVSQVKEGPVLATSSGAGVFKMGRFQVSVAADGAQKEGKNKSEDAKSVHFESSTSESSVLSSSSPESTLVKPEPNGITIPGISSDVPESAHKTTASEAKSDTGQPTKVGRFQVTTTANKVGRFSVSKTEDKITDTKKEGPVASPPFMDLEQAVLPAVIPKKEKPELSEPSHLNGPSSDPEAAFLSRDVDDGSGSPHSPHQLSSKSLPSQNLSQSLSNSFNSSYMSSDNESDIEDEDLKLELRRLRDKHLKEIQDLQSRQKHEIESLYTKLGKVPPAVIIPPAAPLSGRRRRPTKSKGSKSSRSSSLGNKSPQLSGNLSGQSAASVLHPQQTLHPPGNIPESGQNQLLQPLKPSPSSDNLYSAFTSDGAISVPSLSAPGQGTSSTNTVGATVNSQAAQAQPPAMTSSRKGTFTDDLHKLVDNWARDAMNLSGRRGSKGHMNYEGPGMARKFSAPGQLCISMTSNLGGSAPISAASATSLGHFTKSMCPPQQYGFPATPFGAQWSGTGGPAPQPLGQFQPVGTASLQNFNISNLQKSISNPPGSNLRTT
T4 sequence (P17948 27-1338): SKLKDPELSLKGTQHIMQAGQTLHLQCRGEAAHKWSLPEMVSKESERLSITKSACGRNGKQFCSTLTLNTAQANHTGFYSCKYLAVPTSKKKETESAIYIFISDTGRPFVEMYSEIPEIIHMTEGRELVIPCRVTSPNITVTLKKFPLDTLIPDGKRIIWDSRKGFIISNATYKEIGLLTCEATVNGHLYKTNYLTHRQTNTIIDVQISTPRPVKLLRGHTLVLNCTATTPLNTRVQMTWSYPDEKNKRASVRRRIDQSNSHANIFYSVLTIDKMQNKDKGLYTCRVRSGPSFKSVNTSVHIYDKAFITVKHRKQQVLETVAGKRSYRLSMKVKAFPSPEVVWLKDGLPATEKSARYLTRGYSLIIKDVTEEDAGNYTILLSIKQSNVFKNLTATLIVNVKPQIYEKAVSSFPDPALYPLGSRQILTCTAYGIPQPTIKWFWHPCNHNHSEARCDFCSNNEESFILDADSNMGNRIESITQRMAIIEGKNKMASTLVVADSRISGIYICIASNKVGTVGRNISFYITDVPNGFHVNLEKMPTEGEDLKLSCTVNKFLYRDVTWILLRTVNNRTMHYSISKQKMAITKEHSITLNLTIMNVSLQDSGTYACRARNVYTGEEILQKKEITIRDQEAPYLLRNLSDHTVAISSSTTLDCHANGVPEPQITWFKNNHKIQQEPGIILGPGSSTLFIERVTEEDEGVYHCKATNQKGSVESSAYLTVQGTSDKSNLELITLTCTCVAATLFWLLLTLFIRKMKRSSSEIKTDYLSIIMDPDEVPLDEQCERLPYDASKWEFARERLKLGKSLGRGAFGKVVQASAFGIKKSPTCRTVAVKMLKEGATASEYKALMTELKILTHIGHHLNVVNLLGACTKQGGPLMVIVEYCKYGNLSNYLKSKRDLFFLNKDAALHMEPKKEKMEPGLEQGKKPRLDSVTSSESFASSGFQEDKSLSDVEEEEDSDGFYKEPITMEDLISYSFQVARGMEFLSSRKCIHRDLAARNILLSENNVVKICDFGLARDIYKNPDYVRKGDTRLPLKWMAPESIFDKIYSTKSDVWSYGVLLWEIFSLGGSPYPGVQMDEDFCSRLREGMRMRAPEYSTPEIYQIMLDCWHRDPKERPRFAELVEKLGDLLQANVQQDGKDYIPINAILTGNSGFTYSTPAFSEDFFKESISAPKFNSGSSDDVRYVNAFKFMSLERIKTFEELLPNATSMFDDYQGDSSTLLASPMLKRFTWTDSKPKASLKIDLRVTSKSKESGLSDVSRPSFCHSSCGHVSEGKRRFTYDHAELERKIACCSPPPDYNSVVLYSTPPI
T9 sequence (Q96GD4 whole entry): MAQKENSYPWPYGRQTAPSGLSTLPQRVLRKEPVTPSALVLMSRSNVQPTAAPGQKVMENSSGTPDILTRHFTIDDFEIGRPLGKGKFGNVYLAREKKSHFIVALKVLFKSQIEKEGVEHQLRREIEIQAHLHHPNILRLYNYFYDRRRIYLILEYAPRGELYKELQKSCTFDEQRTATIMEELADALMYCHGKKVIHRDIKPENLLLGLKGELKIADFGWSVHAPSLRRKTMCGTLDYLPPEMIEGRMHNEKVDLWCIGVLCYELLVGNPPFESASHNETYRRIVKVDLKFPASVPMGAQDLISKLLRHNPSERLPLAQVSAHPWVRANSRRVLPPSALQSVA
T10 sequence (Q96NX5 whole entry): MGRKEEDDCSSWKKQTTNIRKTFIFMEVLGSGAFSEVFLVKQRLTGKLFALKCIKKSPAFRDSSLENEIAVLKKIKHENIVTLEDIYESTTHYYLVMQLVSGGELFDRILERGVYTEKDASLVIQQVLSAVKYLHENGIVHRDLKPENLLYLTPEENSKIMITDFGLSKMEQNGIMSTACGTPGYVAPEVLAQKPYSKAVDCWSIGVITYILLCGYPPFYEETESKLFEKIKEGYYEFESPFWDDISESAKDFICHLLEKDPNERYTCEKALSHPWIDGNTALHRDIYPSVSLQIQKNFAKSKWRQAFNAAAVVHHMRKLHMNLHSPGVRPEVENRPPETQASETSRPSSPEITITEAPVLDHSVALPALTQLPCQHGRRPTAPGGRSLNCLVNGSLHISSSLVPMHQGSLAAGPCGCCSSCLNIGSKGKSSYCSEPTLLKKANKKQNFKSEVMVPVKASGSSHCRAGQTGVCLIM
T5 sequence (P31751 whole entry): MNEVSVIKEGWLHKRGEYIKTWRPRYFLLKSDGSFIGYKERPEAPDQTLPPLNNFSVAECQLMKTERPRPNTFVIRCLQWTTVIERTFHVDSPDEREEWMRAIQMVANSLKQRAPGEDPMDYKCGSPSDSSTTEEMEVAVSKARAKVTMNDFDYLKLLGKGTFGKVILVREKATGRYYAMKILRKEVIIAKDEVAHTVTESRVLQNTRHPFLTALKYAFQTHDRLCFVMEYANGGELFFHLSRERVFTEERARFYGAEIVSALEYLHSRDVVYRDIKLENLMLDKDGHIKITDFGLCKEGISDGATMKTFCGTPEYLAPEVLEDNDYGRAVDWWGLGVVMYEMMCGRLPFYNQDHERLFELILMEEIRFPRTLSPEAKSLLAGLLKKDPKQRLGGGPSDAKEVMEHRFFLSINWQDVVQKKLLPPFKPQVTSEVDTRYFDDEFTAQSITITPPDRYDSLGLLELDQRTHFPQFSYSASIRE

Structure (SMILES)	remaining binding at 1 µM [1]	remaining binding at 1 µM [2]	remaining binding at 1 µM [3]	remaining binding at 1 µM [4]	remaining binding at 1 µM [5]	remaining binding at 1 µM [6]	remaining binding at 1 µM [7]	remaining binding at 1 µM [8]	remaining binding at 1 µM [9]	remaining binding at 1 µM [10]	remaining binding at 1 µM [11]
CNc1nc(Nc2ccc(C(=O)N3CCOCC3)cc2OC)nc2[nH]cc(C#N)c12 [Example 1, 2-((2-methoxy-4-(morpholine-4-carbonyl)phenyl)amino)-4-(methylamino)-7H-pyrrolo[2,3-d]pyrimidine-5-carbonitrile]	75%	97%	41%	99%	86%	1.8%	68%	97%	73%	74%	70%
CC1(Nc2nc(Nc3cnn([C@H]4CCN(C5COC5)C[C@@H]4F)c3Cl)nc3[nH]cc(C#N)c23)CC1 [Example 52, 2-((5-chloro-1-((3S,4S)-3-fluoro-1-(oxetane-3-yl)piperidine-4-yl)-1H-pyrazole-4-yl)amino)((1-methylcyclopropyl)amino)-7H-pyrrolo[2,3-d]pyrimidine-5-carbonitrile]	20%	1%	0%	6.2%	100%	0.6%	3.9%	96%	14%	34%	99%
CCNc1nc(Nc2ccc(C(=O)N3CCC(N4CCOCC4)CC3)cc2OC)nc2[nH]cc(C(F)(F)F)c12 [Example 104, (4-((4-(ethylamino)-5-(trifluoromethyl)-7H-pyrrolo[2,3-d]pyrimidine-2-yl)amino)-3-methoxyphenyl)(4-morpholinopiperidine-1-yl)methanone]	100%	86%	47%	100%	94%	0.15%	78%	100%	90%	94%	100%
